Assay results from patent US20250222008A1, “EYEDROPS CONTAINING AN ALPHA1-BLOCKER FOR INHIBITING MYOPIA PROGRESSION” (TSUBOTA LABORATORY, INC., priority 2022, published 2025).
Counter-ions that a name gives are not always drawn.

Experiments:
[1] = test system: mouse myopic models (−30D lens on right eye, 0D lens on left eye); experiment: Refractive power measurement in lens-induced myopia mice (infrared photorefractor); type: in vivo, mice (C57BL6/J)
Method: (§1) During the myopia induction period, eyedrops were administered once per day. Phosphate buffered saline (PBS) eyedrops were classified as a control group (Control), and α1-blocker eyedrops were classified as test groups.
(§2) The refractive index and the axial length of the mouse eyeball after three weeks were measured and the amounts of change were calculated. The refractive values were measured by using an infrared photorefractor for mice (fabricated by Prof Schaeffel of University of Tubingen). The more negative the refractive index, the more severe the myopia. The axial lengths were measured by using spectral domain optical coherence tomography (Envisu R4310, manufactured by Leica). The greater the value of the axial length, the greater the severity of myopia.
(§3) The eyedrops were administered once per day for the three weeks of the myopia induction period.
(§4) α1-blocker eyedrops having concentrations (mg of α1-blocker salt contained in 1 mL: mg/mL) of 0.001 (mg/mL), 0.01 (mg/mL), and 0.1 (mg/mL) were used as the eyedrops. The eyedrops were administered once per day for the three weeks of the myopia induction period. The control group was used with PBS eyedrops not containing an α1-blocker, and the α1-blocker eyedrops were eyedrops obtained by containing bunazosin hydrochloride at the predetermined concentrations.
(§5) The PBS (control group), bunazosin eyedrops (bunazosin of 0.01%, bunazosin hydrochloride of 0.01 mg/mL), silodosin eyedrops (silodosin of 0.01%, silodosin of 0.01 mg/mL), and tamsulosin eyedrops (tamsulosin of 0.01%, tamsulosin hydrochloride of 0.01 mg/mL) were used as the eyedrops. The eyedrops were administered once per day for the three weeks of the myopia induction period, as in Experiments 1 and 2. For the control group as well, PBS eyedrops not containing an α1-blocker were used, as in Experiments 1 and 2.

[2] = test system: mouse myopic models (−30D lens on right eye, 0D lens on left eye); experiment: Axial length measurement in lens-induced myopia mice (spectral domain optical coherence tomography); type: in vivo, mice (C57BL6/J); conditions: for myopia progression judged by axial length difference −30D vs 0D eyes: eyedrops 0.1 mg/mL once per day; for axial myopia progression judged by axial length difference −30D vs 0D eyes: Experiment 3, eyedrops 0.01% (0.01 mg/mL) once per day
Method: as §1, §2, §3, §4, §5

[3] = cited from earlier work
[4] = Experiment 1, eyedrops 0.1 mg/mL once per day for three weeks of myopia induction, amount of change
[5] = Experiment 1, eyedrops 0.1 mg/mL once per day for three weeks, amount of change
[6] = Experiment 1, eyedrops 0.1 mg/mL once per day, three weeks
[7] = Experiment 2, concentration 0.001 mg/mL
[8] = Experiment 2, concentration 0.001 mg/mL, once per day, three weeks
[9] = Experiment 2, concentration 0.01 mg/mL
[10] = Experiment 2, concentration 0.01 mg/mL, once per day, three weeks
[11] = Experiment 2, concentration 0.1 mg/mL
[12] = Experiment 2, concentration 0.1 mg/mL, once per day, three weeks
[13] = Experiment 3, eyedrops 0.01% (0.01 mg/mL) once per day, three weeks

| Compound | refractive power, eyes with the −30D lens [1, 4] | refractive power, eyes with the 0D lens [1, 5] | myopia progression judged by refractive power difference −30D vs 0D eyes [1, 6] | myopia progression judged by refractive power difference −30D vs 0D eyes [1, 13] | axial length, eyes with the 0D lens [2, 5] | axial length, eyes with the −30D lens [2, 5] | myopia progression judged by axial length difference −30D vs 0D eyes ([2]; Experiment 1, three weeks) | axial myopia progression judged by axial length difference −30D vs 0D eyes ([2]; three weeks) | solubility with respect to water [3] | also measured |
| --- | --- | --- | --- | --- | --- | --- | --- | --- | --- | --- |
| CCCC(=O)N1CCCN(c2nc(N)c3cc(OC)c(OC)cc3n2)CC1 [bunazosin] | −0.74±4.07 D | 3.65±4.72 D | progression of myopia was suppressed | progression of myopia was suppressed | 0.187±0.019 mm | 0.191±0.026 mm | progression of myopia was suppressed | progression of axial myopia was suppressed | – | myopia progression judged by refractive power [1, 7]: a sufficient myopia progression suppressing effect was not obtained; refractive power, eyes with the 0D lens [1, 8]: −0.33±3.47 D; refractive power, eyes with the −30D lens [1, 8]: −10.90±4.13 D; myopia progression judged by refractive power [1, 9]: progression of myopia was suppressed; refractive power, eyes with the 0D lens [1, 10]: −0.83±3.20 D; refractive power, eyes with the −30D lens [1, 10]: −6.92±4.08 D; myopia progression judged by refractive power [1, 11]: progression of myopia was suppressed; refractive power, eyes with the 0D lens [1, 12]: 3.19±3.76 D; refractive power, eyes with the −30D lens [1, 12]: −1.26±3.28 D; myopia progression judged by axial length [2, 7]: showed an elongation in axial length; axial length, eyes with the 0D lens [2, 8]: 0.196±0.008 mm; axial length, eyes with the −30D lens [2, 8]: 0.228±0.017 mm; myopia progression judged by axial length [2, 9]: progression of myopia was suppressed; axial length, eyes with the 0D lens [2, 10]: 0.192±0.021 mm; axial length, eyes with the −30D lens [2, 10]: 0.209±0.024 mm; myopia progression judged by axial length [2, 11]: progression of myopia was suppressed; axial length, eyes with the 0D lens [2, 12]: 0.180±0.028 mm; axial length, eyes with the −30D lens [2, 12]: 0.189±0.024 mm |
| COc1cc2nc(N3CCN(C(=O)C4COc5ccccc5O4)CC3)nc(N)c2cc1OC (stereo not drawn) [doxazosin hydrochloride] | – | – | – | – | – | – | – | – | approximately 5 mg/mL | – |
| COc1cc2nc(N3CCN(C(=O)c4ccco4)CC3)nc(N)c2cc1OC [prazosin] | – | – | – | – | – | – | – | – | 1.4 mg/mL | – |
| C[C@H](Cc1cc2c(c(C(N)=O)c1)N(CCCO)CC2)NCCOc1ccccc1OCC(F)(F)F [silodosin] | – | – | – | progression of myopia was suppressed | – | – | – | progression of axial myopia was suppressed | – | – |
| CCOc1ccccc1OCCN[C@H](C)Cc1ccc(OC)c(S(N)(=O)=O)c1 [tamsulosin] | – | – | – | progression of myopia was suppressed | – | – | – | progression of axial myopia was suppressed | – | – |
| COc1ccccc1N1CCN(CCCNc2cc(=O)n(C)c(=O)n2C)CC1 [urapidil] | −5.51±6.29 D | 0.33±7.07 D | progression of myopia was suppressed | – | 0.217±0.014 mm | 0.233±0.020 mm | progression of myopia was suppressed | – | 25 mg/mL | – |
